Measurements from publication PMC11233931, “Remodeling tumor‐associated macrophage for anti‐cancer effects by rational design of irreversible inhibition of mitogen‐activated protein kinase‐activated protein kinase 2” (MedComm, 2024).

Key:
Test in all cases: Eurofins kinase selectivity profile against 380 other human recombinant kinases (Table S2)
Type in all cases: biochemical
[1] = target: T1, 380 human recombinant protein kinases (Homo sapiens, UniProt O14757); details: CHK1(h), read-out: Inhibition rate
T1 construct: purchased Eurofins (Celle Lévescault)
T1 sequence (O14757 1-476): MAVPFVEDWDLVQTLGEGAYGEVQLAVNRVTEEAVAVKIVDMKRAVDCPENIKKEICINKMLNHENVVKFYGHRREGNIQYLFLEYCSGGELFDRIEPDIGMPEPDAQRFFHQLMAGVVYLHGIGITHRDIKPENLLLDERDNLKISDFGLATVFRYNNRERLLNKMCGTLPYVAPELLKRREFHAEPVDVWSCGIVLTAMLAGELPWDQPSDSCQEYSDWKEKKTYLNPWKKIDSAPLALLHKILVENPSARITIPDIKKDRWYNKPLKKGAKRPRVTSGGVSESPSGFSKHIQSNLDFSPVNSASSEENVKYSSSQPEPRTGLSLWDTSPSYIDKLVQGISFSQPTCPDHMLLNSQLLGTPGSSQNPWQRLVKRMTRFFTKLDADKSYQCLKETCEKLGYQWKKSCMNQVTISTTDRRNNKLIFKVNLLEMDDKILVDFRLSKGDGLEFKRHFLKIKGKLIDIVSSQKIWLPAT
Procedure, shortened: (§1)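 The inhibitor was sent to a contract lab and screened at various concentrations against 380 human recombinant protein kinases. This served as a counter-screen for MK2 specificity.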

[2] = target: T2, 380 human recombinant protein kinases (Homo sapiens, UniProt P05129); details: PKCγ(h), read-out: Inhibition rate
T2 construct: purchased Eurofins (Celle Lévescault)
Procedure, shortened: as §1

[3] = target: T3, 380 human recombinant protein kinases (Homo sapiens, UniProt P07948); details: Lyn(h), read-out: Inhibition rate
T3 construct: purchased Eurofins (Celle Lévescault)
Procedure, shortened: as §1

[4] = target: T4, 380 human recombinant protein kinases (Homo sapiens, UniProt P08069); details: IGF-1R(h), read-out: Inhibition rate
T4 construct: purchased Eurofins (Celle Lévescault)
Procedure, shortened: as §1

[5] = target: T5, 380 human recombinant protein kinases (Homo sapiens, UniProt P42336, E542K); details: PI3 Kinase (p110α(E542K)/p85α)(h), read-out: Inhibition rate (%)
T5 construct: purchased Eurofins (Celle Lévescault)
Procedure, shortened: as §1

[6] = target: T6, 380 human recombinant protein kinases (Homo sapiens, UniProt P54646); details: AMPKα2(h), read-out: Inhibition rate
T6 construct: purchased Eurofins (Celle Lévescault)
Procedure, shortened: as §1

[7] = target: T7, 380 human recombinant protein kinases (Homo sapiens, UniProt Q13131); details: AMPKα1(h), read-out: Inhibition rate
T7 construct: purchased Eurofins (Celle Lévescault)
T7 sequence (Q13131 whole entry): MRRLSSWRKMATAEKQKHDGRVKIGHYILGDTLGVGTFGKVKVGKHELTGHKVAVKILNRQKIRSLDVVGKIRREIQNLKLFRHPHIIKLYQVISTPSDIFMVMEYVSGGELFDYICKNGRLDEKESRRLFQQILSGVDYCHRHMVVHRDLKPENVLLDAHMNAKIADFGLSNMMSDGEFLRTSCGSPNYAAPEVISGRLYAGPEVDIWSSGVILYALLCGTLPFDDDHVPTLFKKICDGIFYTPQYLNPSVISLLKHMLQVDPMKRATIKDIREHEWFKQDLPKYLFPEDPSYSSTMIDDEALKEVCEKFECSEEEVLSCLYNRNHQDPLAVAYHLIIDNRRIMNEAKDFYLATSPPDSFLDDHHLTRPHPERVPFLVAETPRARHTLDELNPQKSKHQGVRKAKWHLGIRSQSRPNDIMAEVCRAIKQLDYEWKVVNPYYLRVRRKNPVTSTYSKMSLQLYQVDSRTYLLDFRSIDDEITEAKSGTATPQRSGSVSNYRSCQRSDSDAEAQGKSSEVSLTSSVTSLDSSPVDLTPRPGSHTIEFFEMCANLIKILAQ
Procedure, shortened: as §1

[8] = target: T8, 380 human recombinant protein kinases (Homo sapiens, UniProt Q6IQ55); details: TTBK2(h), read-out: Inhibition rate (%)
T8 construct: purchased Eurofins (Celle Lévescault)
T8 sequence (Q6IQ55 whole entry): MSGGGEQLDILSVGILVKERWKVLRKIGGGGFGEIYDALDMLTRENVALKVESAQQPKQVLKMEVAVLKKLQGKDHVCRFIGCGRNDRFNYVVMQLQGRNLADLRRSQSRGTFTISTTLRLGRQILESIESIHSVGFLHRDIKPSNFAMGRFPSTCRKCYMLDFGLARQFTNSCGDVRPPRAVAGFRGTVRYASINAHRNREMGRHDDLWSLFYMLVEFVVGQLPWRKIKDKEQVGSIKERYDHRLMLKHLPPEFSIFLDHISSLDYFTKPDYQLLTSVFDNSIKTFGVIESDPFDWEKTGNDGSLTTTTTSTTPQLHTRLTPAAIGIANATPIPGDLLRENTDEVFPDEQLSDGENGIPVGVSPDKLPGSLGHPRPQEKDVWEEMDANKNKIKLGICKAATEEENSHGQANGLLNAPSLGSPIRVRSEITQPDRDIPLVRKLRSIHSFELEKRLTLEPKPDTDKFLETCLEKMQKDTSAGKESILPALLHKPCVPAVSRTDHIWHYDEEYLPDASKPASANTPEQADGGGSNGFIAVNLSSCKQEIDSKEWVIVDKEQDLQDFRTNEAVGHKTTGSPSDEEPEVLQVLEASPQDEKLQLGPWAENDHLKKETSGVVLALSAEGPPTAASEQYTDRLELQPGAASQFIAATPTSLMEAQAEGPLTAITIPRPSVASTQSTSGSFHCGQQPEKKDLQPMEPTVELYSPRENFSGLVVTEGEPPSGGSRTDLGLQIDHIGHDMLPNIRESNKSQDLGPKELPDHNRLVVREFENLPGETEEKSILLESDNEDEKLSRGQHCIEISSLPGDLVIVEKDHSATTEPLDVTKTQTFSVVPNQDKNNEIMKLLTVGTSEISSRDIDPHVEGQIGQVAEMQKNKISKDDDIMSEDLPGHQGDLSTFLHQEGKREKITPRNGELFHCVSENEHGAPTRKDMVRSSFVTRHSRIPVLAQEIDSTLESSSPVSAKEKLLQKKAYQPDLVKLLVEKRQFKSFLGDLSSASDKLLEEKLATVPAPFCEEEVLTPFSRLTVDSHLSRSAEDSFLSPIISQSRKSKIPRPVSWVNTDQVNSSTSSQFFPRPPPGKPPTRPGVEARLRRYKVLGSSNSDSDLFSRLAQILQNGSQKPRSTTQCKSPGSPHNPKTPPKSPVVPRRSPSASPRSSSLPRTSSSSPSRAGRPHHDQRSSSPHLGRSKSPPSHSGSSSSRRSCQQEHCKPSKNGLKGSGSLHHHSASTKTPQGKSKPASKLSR
Procedure, shortened: as §1

[9] = target: T9, 380 human recombinant protein kinases (Homo sapiens, UniProt Q96BR1); details: SGK3(h), read-out: Inhibition rate (%)
T9 construct: purchased Eurofins (Celle Lévescault)
T9 sequence (Q96BR1 1-496): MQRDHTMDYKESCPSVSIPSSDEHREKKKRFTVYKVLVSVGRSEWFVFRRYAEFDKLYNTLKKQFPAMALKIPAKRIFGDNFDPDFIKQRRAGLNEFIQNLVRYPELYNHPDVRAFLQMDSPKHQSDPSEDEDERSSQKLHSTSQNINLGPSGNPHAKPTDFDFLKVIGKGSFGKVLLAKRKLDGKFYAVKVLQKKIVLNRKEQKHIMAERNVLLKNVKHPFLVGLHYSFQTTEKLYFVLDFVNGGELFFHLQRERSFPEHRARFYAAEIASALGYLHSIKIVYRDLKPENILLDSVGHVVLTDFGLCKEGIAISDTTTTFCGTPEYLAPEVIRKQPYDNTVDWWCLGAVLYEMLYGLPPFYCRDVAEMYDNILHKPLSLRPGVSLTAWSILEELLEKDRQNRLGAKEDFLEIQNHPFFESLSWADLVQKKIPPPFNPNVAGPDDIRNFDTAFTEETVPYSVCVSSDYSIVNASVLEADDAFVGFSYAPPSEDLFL
Procedure, shortened: as §1

[10] = target: T10, 380 human recombinant protein kinases (Homo sapiens, UniProt Q99755); details: PIP5K1α(h), read-out: Inhibition rate (%)
T10 construct: purchased Eurofins (Celle Lévescault)
Procedure, shortened: as §1

[11] = target: T11, 380 human recombinant protein kinases (Homo sapiens, UniProt Q9H4A3); details: WNK1(h), read-out: Inhibition rate (%)
T11 construct: purchased Eurofins (Celle Lévescault)
T11 sequence (Q9H4A3 whole entry): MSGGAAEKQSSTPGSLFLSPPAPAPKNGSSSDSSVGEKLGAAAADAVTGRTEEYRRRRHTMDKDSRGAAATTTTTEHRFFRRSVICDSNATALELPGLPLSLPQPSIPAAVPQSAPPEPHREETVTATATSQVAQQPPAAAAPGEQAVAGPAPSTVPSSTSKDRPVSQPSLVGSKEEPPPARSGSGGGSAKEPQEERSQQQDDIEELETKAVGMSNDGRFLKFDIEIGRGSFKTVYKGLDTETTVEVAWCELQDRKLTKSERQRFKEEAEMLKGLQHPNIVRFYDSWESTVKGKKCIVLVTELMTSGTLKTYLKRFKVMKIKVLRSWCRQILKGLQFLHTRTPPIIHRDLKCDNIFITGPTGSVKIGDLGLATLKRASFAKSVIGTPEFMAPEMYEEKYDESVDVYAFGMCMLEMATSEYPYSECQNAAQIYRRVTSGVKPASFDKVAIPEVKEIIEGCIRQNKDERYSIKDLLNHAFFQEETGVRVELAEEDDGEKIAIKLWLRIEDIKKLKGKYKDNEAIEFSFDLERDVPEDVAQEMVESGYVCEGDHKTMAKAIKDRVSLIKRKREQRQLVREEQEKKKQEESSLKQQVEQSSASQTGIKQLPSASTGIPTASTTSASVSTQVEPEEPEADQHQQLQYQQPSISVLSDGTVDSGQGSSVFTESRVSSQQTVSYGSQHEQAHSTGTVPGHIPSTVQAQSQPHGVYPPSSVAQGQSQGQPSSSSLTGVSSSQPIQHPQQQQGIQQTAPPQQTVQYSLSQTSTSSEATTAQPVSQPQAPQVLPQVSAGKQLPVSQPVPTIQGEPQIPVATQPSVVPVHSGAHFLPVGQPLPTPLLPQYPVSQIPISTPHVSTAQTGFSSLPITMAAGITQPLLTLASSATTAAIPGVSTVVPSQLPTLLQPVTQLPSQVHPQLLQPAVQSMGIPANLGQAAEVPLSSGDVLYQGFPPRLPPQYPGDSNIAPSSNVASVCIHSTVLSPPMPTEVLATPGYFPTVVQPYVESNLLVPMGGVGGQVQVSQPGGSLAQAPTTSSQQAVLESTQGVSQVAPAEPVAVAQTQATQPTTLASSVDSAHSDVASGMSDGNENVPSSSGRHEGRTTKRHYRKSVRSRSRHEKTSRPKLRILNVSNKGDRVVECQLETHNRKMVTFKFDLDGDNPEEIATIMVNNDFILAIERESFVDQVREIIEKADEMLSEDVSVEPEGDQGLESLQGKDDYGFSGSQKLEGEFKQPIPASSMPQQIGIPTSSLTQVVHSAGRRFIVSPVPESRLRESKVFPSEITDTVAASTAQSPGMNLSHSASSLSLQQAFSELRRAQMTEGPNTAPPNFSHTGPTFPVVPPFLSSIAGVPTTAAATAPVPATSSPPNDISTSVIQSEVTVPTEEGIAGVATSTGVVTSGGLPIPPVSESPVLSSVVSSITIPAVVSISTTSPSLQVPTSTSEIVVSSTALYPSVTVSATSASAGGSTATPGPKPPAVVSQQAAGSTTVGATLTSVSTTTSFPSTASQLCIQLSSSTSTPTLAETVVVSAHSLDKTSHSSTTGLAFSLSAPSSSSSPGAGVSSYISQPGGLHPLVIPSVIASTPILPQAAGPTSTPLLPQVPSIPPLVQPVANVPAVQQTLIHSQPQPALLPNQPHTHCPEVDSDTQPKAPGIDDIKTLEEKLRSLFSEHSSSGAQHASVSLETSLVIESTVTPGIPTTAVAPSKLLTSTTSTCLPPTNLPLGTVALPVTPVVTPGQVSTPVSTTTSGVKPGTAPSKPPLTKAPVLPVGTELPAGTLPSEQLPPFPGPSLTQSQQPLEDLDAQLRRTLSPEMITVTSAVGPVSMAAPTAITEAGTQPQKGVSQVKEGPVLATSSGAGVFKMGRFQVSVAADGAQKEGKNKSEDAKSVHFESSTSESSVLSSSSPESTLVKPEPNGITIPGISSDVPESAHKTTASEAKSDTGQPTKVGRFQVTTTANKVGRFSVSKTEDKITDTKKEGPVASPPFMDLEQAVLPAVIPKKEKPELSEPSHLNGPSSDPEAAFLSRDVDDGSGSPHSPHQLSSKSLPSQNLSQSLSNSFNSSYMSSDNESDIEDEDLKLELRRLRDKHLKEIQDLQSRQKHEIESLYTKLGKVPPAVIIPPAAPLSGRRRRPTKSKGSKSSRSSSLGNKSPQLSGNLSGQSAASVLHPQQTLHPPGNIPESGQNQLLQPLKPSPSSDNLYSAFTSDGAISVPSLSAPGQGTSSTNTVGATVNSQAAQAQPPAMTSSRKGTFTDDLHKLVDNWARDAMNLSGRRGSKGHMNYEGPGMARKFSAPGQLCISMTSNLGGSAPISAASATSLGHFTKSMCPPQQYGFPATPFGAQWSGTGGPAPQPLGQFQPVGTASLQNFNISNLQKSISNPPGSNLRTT
Procedure, shortened: as §1

[12] = target: T12, 380 human recombinant protein kinases (Homo sapiens, UniProt Q9UQM7); details: CaMKIIα(h), read-out: Inhibition rate
T12 construct: purchased Eurofins (Celle Lévescault)
T12 sequence (Q9UQM7 whole entry): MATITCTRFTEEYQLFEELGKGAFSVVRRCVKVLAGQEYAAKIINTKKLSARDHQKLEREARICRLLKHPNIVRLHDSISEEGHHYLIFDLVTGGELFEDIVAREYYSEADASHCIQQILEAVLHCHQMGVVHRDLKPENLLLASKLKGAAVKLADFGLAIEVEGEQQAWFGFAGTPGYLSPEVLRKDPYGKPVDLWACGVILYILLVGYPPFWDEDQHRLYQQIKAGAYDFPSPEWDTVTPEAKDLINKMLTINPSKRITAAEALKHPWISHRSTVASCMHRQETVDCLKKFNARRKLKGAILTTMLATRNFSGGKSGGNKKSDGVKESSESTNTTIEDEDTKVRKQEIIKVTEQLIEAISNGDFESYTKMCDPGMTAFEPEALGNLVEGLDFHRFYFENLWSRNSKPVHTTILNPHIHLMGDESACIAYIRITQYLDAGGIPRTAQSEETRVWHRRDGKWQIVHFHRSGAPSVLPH
Procedure, shortened: as §1

C=CC(=O)Nc1cc(-c2cc(-c3cc4c([nH]3)CCNC4=O)ccn2)ccc1OC(F)(F)F [compound 11]
inhibition at 0.01 µM ([1]; 10 nM): 10% | inhibition at 0.1 µM ([1]; 100 nM): 6% | inhibition at 1 µM ([1]; 1000 nM): 6% | inhibition at 0.01 µM ([2]; 10 nM): 7% | inhibition at 0.1 µM ([2]; 100 nM): 5% | inhibition at 1 µM ([2]; 1000 nM): 14% | inhibition at 0.01 µM ([3]; 10 nM): -1% | inhibition at 0.1 µM ([3]; 100 nM): -11% | inhibition at 1 µM ([3]; 1000 nM): -11% | inhibition at 0.01 µM ([4]; 10 nM): -3% | inhibition at 0.1 µM ([4]; 100 nM): -2% | inhibition at 1 µM ([4]; 1000 nM): -14% | inhibition at 0.01 µM ([5]; 10 nM): -3% | inhibition at 0.1 µM ([5]; 100 nM): -2% | inhibition at 1 µM ([5]; 1000 nM): -2% | inhibition at 0.01 µM ([6]; 10 nM): 3% | inhibition at 0.1 µM ([6]; 100 nM): 11% | inhibition at 1 µM ([6]; 1000 nM): 43% | inhibition at 0.01 µM ([7]; 10 nM): 6% | inhibition at 0.1 µM ([7]; 100 nM): 20% | inhibition at 1 µM ([7]; 1000 nM): 65% | inhibition at 0.01 µM ([8]; 10 nM): -1% | inhibition at 0.1 µM ([8]; 100 nM): -3% | inhibition at 1 µM ([8]; 1000 nM): 3% | inhibition at 0.01 µM ([9]; 10 nM): -8% | inhibition at 0.1 µM ([9]; 100 nM): 2% | inhibition at 1 µM ([9]; 1000 nM): -4% | inhibition at 0.01 µM ([10]; 10 nM): -4% | inhibition at 0.1 µM ([10]; 100 nM): -3% | inhibition at 1 µM ([10]; 1000 nM): -2% | inhibition at 0.01 µM ([11]; 10 nM): 6% | inhibition at 0.1 µM ([11]; 100 nM): 2% | inhibition at 1 µM ([11]; 1000 nM): 4% | inhibition at 0.01 µM ([12]; 10 nM): -3% | inhibition at 0.1 µM ([12]; 100 nM): -4% | inhibition at 1 µM ([12]; 1000 nM): -2%
